The source of these data is US12065438B2, “Substituted tricyclic compounds as indoleamine 2,3-dioxygenase inhibitors” (Merck Sharp & Dohme LLC, priority 2019, dated 2024).

For test [1], the target named is T1, IDO1 (Homo sapiens, UniProt P14902). The test is described as follows: IDO1 Cellular Assay in HeLa Cells Stimulated with IFNγ. Details: endogenous in cells; host or cells: HeLa cells stimulated with IFNγ. As to conditions: HeLa cells stimulated with IFNγ 100 ng/mL, 300 uM L-tryptophan, about 48 hours, fluorescence readout; read-out: IDO1 HELA Cell Assay, IC50. Type of test: cell-based. The method, then:
Biological Assays IDO1 Cellular Assay in HeLa Cells Stimulated with IFNγ HeLa cells were cultured in complete HeLa culture medium (90% EMEM, 10% heat-inactivated fetal bovine serum) and expanded to about 1×10^9 cells. The cells were then collected and frozen down at 1×10^7 cells/vial in 1 mL frozen medium (90% complete HeLa culture medium, 10% DMSO). Compounds to be tested were serially diluted in ten 3-fold steps in DMSO starting from 10 mM DMSO stocks in Echo low volume plate(s). Compound dilutions or DMSO alone were then dispensed from the dilution plate(s) into Greiner black 384-well assay plate(s) (catalog #781086, 50 nL/well) using an Echo 550 acoustic liquid handler (Labcyte). Frozen HeLa cells were thawed and transferred into HeLa assay medium (99% complete HeLa culture medium, 1% Pen/Strep) with 20 mL medium/vial of cells. The cells were spun down at 250 g in a table top centrifuge for 5 min and suspended in same volume of HeLa assay medium. The cells were then counted and adjusted to a density of 2×10^5 cells/mL in HeLa assay medium. Sterile L-tryptophan were added to the cells with final concentration of 300 uM L-tryptophan. A small aliquot (2 mL/plate) of HeLa cells were set aside and were not treated with IFNγ, to serve as the Max-E control. The rest of HeLa cells were added with sterile IFNγ (Cat #285-IF, R & D systems) with a final concentration of 100 ng/mL. HeLa cells with and without IFNγ were dispensed to the respective wells of 384-well assay plates containing the compounds. The plates were incubated for about 48 hours at a 37° C., 5% CO2 incubator. Afterwards, 12 μL of 0.5 M methyl isonipecotate in dimethyl sulfoxide were added into each well and the plates were sealed and incubated at 37° C. without CO2 overnight. The plates were centrifuged for 1 min at 200×g. The resulting fluorescence was measured in a Spectramax plate reader (Molecular Devices) with a 400 nm excitation filter and a 510 nm emission filter. The fluorescence intensity of each well was corrected for the background observed in wells with non-IFNγ-treated cells and was expressed as a fraction of the intensity observed in wells of IFNγ-treated cells and DMSO only. Potencies were calculated by […] least squares fit to the four parameter logistic IC50 equation.

The target in test [2] is T1, IDO1. Put plainly: IDO1 Human Whole Blood Assay. Type of test: cell-based. As to conditions: LPS and IFNγ 100 ng/mL, overnight (18 h), kynurenine by LC/MS/MS. The method, then: IDO1 Human Whole Blood Assay
Compounds to be tested were serially diluted in ten 3-fold steps in DMSO starting from 10 mM. 3 μL of compound dilutions or DMSO alone were then dispensed from the dilution plate into a polypropylene 96-well assay plate containing 97 μL of RPMI medium using an Echo 555 acoustic liquid handler (Labcyte). LPS and IFNγ was prepared in RPMI medium to a 10× of final conc. (1000 ng/mL), final concentration is 100 ng/mL.
240 μL of blood was transferred to each of the wells of a v-bottom 96 well plate. 30 μL of compound was transferred from intermediate dilution plate, and incubated for 15 min. 30 μL from stimulants was then transferred to blood and mixed thoroughly. Plate was covered with breathable membrane and incubated at 37° C. for overnight (18 h).
On day 2, isotope labeled standard solutions of kynurenine and tryptophan was made in water at 10× concentration and 30 μL was added to the blood at 3 μM final concentration. The assay plates were centrifuged at 300×G for 10 min with no brake to separate plasma from red blood cells. 60 μL of plasma samples was removed without disturbing red blood cells. Plasma was diluted with RPMI in 1:1 ratio and proteins were precipitated out with two volumes of Acetonitrile. The plates were centrifuged at 4000×G for 60 min. 20 μL of supernatant was carefully transferred to a 384 well plate containing 40 μL of 0.1% formic acid in water and analyzed by LC/MS/MS.
LC/MS/MS analyses were performed using Thermo Fisher's LX4-TSQ Quantum Ultra system. This system consists of four Agilent binary high-performance liquid chromatography (HPLC) pumps and a TSQ Quantum Ultra triple quadrupole MS/MS instrument. For each sample, 5 μL were injected onto an Atlantis T3 column (2.1 mm×150 mm, 3 μm particle size) from Waters. The mobile phase gradient pumped at 0.8 mL/min was used to elute the analytes from the column at 25° C. The elution started at 0% B increasing linearly to 25% B at 6.5 min, holding at 25% for 1 min, re-equilibrating to 10 min. Mobile phase A consisted of 0.1% formic acid in water. Mobile phase B consisted of 0.1% of formic acid in acetonitrile. Data were acquired in positive mode using a HESI interface. The operational parameters for the TSQ Quantum Ultra instrument were a spray voltage of 4000 V, capillary temperature of 380° C., vaporizer temperature 400° C., shealth gas 60 arbitrary units, Aux gas 20 arbitrary units, tube lens 85 and collision gas 1.2 mTorr. SRM chromatograms of kynurenine (Q1: 209.2>Q3:94.0) and internal standard (Q1: 215.3>Q3:98.2) were collected for 90 sec. The peak area was integrated by Xcalibur Quan software. The ratios between the kynurenine generated in the reaction and 2D6-Kynurenine spiked-in internal standard were used to generate percentage inhibition and IC50 values. Compounds were titrated and IC50's were calculated by 4 parameter sigmoidal curve fitting formula.

T1 sequence (P14902 whole entry): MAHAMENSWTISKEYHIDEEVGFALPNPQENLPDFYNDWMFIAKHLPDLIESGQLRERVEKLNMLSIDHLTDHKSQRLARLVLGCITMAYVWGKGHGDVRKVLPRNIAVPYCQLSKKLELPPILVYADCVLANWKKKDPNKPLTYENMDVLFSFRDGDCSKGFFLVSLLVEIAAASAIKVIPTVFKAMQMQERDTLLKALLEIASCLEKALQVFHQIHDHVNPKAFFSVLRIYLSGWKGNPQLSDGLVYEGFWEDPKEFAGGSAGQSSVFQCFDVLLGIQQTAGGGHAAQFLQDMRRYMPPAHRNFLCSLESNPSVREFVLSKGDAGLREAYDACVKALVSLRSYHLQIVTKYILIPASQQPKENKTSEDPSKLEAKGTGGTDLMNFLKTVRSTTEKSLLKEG

As for `CC(C)(NC(=O)c1ccc(F)cc1)c1ccc2c(n1)[C@@H]1C[C@@H]1CN2C(=O)OC1CC1` (single isomer, unassigned) [Example 33], the IC50 on IDO1 [1] amounted to 4.05 nM; at IDO1 [2] it was 465 nM.
The like results for `CCC(NC(=O)c1ccc(F)cc1)c1ccc2c(n1)C1CC1CN2C(=O)OC1CC1` (single isomer, unassigned) [Example 37, cyclopropyl 2-(1-(4-fluorobenzamido)propyl)-6,6a,7,7a-tetrahydro-5H-cyclopropa[c][1,5]naphthyridine-5-carboxylate] were, in that order, 2.83 nM and 54 nM.
The like results for `CCc1nccc(N2CC3CC3c3nc(C4(NC(=O)c5ccc(F)cc5)CC4)ccc32)n1` (stereo not drawn) [Example 14, N-(1-(5-(2-ethylpyrimidin-4-yl)-6,6a,7,7a-tetrahydro-5H-cyclopropa[c][1,5]-naphthyridin-2-yl)cyclo-propyl)-4-fluorobenzamide] were, in that order, 3.5 nM and 105 nM.
`O=C(NC1(c2ccc3c(n2)C2CC2CN3c2ccnc(C3CC3)n2)CC1)c1ccc(F)cc1` (stereo not drawn) [Example 15, N-(1-(5-(2-cyclopropyl-pyrimidin-4-yl)-6,6a,7,7a-tetrahydro-5H-cyclo-propa[c][1,5]naphthyridin-2-yl)cyclopropyl)-4-fluorobenzamide]: the IC50 on IDO1 [1] is 4.4 nM; against IDO1 [2] it was 50 nM.
Consider `O=C(NC1(c2ccc3c(n2)C2CC2CN3c2ccnc(C3CC3)n2)CC1)c1ccc(F)cc1` (stereo not drawn) [Example 16, N-(1-(5-(2-cyclopropyl-pyrimidin-4-yl)-6,6a,7,7a-tetrahydro-5H-cyclo-propa[c][1,5]naphthyridin-2-yl)cyclopropyl)-4-fluorobenzamide], for which the values for the IC50 on IDO1 [1] and on IDO1 [2] were 2.6 nM and 32 nM, respectively.
Regarding `CC(C)(O)c1nccc(N2CC3CC3c3nc(C4(NC(=O)c5ccc(F)cc5)CC4)ccc32)n1` (stereo not drawn) [Example 18, 4-fluoro-N-(1-(5-(2-(2-hydroxypropan-2-yl)pyrimidin-4-yl)-6,6a,7,7a-tetrahydro-5H-cyclopropa[c][1,5]naphthyridin-2-yl)cyclopropyl)benzamide], the IC50 at IDO1 [1] stood at 12 nM; at IDO1 [2], 248 nM.
As for `O=C(NC1(c2ccc3c(n2)C2CC2CN3c2ccnc(CO)n2)CC1)c1ccc(F)cc1` (stereo not drawn) [Example 19, 4-fluoro-N-(1-(5-(2-(hydroxymethyl)pyrimidin-4-yl)-6,6a,7,7a-tetrahydro-5H-cyclopropa[c][1,5]naphthyridin-2-yl)cyclopropyl)benzamide], the values for the IC50 at IDO1 [1] and at IDO1 [2] were 11 nM and 151 nM, respectively.
For the compound `C[C@@H](NC(=O)c1ccc(F)cc1)c1ccc2c(n1)[C@@H]1C[C@@H]1CN2C(=O)OC1CC1` [Example 27, cyclopropyl (6aS,7aR)-2-((R)-1-(4-fluorobenzamido)-ethyl)-6,6a,7,7a-tetrahydro-5H-cyclopropa[c][1,5]-naphthyridine-5-carboxylate], the IC50 was 3.23 nM at IDO1 [1] and 463 nM on IDO1 [2].
The like results for `CC(C)(NC(=O)c1ccc(F)cc1)c1ccc2c(n1)C1CC1CN2C(=O)C(F)(F)F` (stereo not drawn) [Example 35, 2-(2-(4-fluorobenzamido)propan-2-yl)-5-(2,2,2-trifluoroacetyl)-6,6a,7,7a-tetrahydro-5H-cyclopropa[c][1,5]naphthyridin-1-ium] were, in that order, 1300 nM and 778 nM.

As usually defined, the IC50 is the concentration needed to halve the response being measured.
